Data set [1] is described as follows: In vivo murine study: 25(OH)D in serum by ELISA (bioavailability of vitamin D). Set-up: species or system mice (Cd1). Conditions: mice; one-week daily administration (groups 3, 5, 6). As to the method: Mice (8-week old adult male Cd1) were enclosure-adapted and fed on a conventional diet. Mice were housed in cages and kept in a temperature-controlled environment (22±2° C.) with a 12-hour light/dark cycle with food for regular chow and tap water supplied ad libitum. After one week of acclimatisation, the animals were then randomly divided into 6 experimental groups of 6 mice each and each group was randomly assigned to one of the scheduled treatments (Table 1).
The strain Lactobacillus paracasei DG® CNCM I-1572 (in short, L paracasei DG®) was sub-cultured in MRS agar and a single colony was inoculated into culture broth and incubated for 18 hours at 37° C. under microaerophilic conditions. […] The optical density (OD 600 nm) was then measured and the suspension was diluted to OD=1.00. […] The decimal count of aliquots on selective medium allowed to quantify the live cell concentration equal to 1.6×10^9 CFU/ml of suspension (2.4×10^8 CFU/aliquot). […]
Mice were sacrificed 3 hours after the end of administration following fluorane anaesthesia and subsequent collection of blood by means of cardiac puncture and removal of the terminal ileum. […] The terminal ileum was first washed with PBS and then subjected to the collection of mucosa and the subsequent freezing in liquid nitrogen. mRNA was then extracted for the quantification of the expression of the vitamin D receptor at mucosal level. […]
(An ELISA detects its analyte on a solid surface through an enzyme-linked reagent.)

Data set [2] relates to vitamin D receptor VDR. The data set can be described thus: In vivo murine study: quantification of vitamin D receptor mRNA in ileal mucosa (quantitative PCR). Details: species or system mice (Cd1). The settings on record: mice. As to the method:
Mice were sacrificed 3 hours after the end of administration following fluorane anaesthesia and subsequent collection of blood by means of cardiac puncture and removal of the terminal ileum. The blood was centrifuged for the separation of serum which was then frozen until the subsequent dose of vitamin D3, in the form of 25-hydroxy-vitamin D (abbreviated as […] 25(OH)D). The terminal ileum was first washed with PBS and then subjected to the collection of mucosa and the subsequent freezing in liquid nitrogen. mRNA was then extracted for the quantification of the expression of the vitamin D receptor at mucosal level.
The terminal ileum was first washed with PBS and then subjected to the collection of mucosa and the subsequent freezing in liquid nitrogen. mRNA was then extracted for the quantification of the expression of the vitamin D receptor at mucosal level. From an operational point of view, total RNA extraction from the mucosa was performed first, then a 30 ng aliquot of total RNA was reverse transcribed to cDNA and then subjected to a quantitative PCR with primers for the vitamin D receptor VDR (described by Wu et al. 2010). Below is the summary of the sequence of primers: […]
RT-PCR analyses were also conducted using an “absolute” negative control and a housekeeping gene to normalise the results obtained (e.g. β-actin).

On to `C=C1CC[C@H](O)C/C1=C/C=C1\CCC[C@]2(C)[C@@H]([C@H](C)CCCC(C)C)CC[C@@H]12` [vitamin D3, cholecalciferol], for which the “change in serum levels of 25(OH)D versus treatment-free control group (statistical significance)” value in data set [1] is given as “did not generate any statistically significant change”. The “vitamin D receptor mRNA expression level in ileal mucosa versus treatment-free control” value in data set [2] (one-week daily administration (groups 3, 5, 6)) is recorded as “even more marked decrease”; in data set [2] (vitamin D3 single dose (groups 2 and 4)) it was “statistically significant decrease”.

Values taken from patent US12472214B2, “Bacterial strains, the compositions thereof and use thereof in a method for the treatment of vitamin D deficiency, and disorders associated therewith” (priority 2020, dated 2025).
